# How the values were obtained:
# Details in all cases: male, Sprague-Dawley, rat, in vivo
# P450 MCA-inducible = test system: P450 MCA-inducible
# Method: (§1) Animals were monitored daily for physical condition and body weight, and blood samples were assayed for serum alanine transferase (ALT) and aspartate aminotransferase (AST) levels using a diagnostic kit (Sigma Aldrich). Three animals per group were sacrificed approximately 12 hours (h), 24 h, 72 h, 168 h, 336 h and 672 h following the last dose administered. Observed gross pathology and liver weights were recorded at time of necropsy. Liver, kidney, brain, spleen and pancreas from each rat were harvested, flash frozen in liquid nitrogen, and stored at −80° C.
# (§2) Frozen liver was homogenized and lysed in TRIZOL reagent (Cat. #10296-028; Life Technologies) following the modifications for liver RNA isolation. Poly(A+) RNA was isolated using an OLIGOTEX kit (Qiagen, Carlsbad, Calif.) and labeled with either Cy3 or Cy5-labeled primers (Operon Technologies, Alameda, Calif.) using the GEMBRIGHT labeling kit (Incyte Genomics). MRNA isolated from tissues of rats dosed with PB was labeled with Cy5 and mRNA isolated from tissues of rats dosed with DMSO was labeled with Cy3. Quantitative and differential expression pattern control cDNAs were added to each labeling reaction. Labeled cDNA was treated with 0.5 M sodium bicarbonate (pH9.2) for 20 min at 85° C. to degrade the RNA and purified using two successive CHROMA SPIN 30 gel filtration spin columns (Clontech, Palo Alto, Calif.). Cy3 labeled control sample and Cy5 labeled experimental sample were combined and precipitated in glycogen, sodium acetate, and ethanol.
# (§3) Hybridization reactions contained 9 microliters of probe mixture consisting of 0.2 micrograms each of both Cy3 and Cy5 labeled cDNA synthesis products in 5×SSC, 0.2% SDS hybridization buffer. The probe mixture was heated to 65° C. for 5 min and was aliquoted onto the microarray surface and covered with an 1.8 cm^2 coverslip. The arrays were transferred to a waterproof chamber having a cavity just slightly larger than a microscope slide. The chamber was kept at 100% humidity internally by the addition of 140 microliters of 5×SSC in a corner of the chamber. The chamber containing the arrays was incubated for about 6.5 hours at 60° C. The arrays were washed for 10 min at 45° C. in low stringency wash buffer (1×SSC, 0.1% SDS), three times for 10 min each at 45 ° C. in high stringency wash buffer (0.1×SSC), and then dried.
# (§4) The microscope used to detect the reporter-labeled hybridization complexes was outfitted with an Innova 70 mixed gas 10 W laser (Coherent Lasers, Santa Clara, Calif.) capable of generating spectral lines at 488 nm for excitation of Cy3, and 632 nm for excitation of Cy5. The excitation laser light was focused on the array using a 20X microscope objective (Nikon). […]
# P450 LA-omega = test system: P450 LA-omega
# Method: as §1, §2, §3, §4
# P450 ISF/B-NF = test system: P450 ISF/B-NF
# Method: as §1, §2, §3, §4
# SEQ ID NOs: 1-47 = test system: SEQ ID NOs: 1-47
# Method: as §1, §2, §3, §4
smiles,measurement,setting,value
c1ccc2c(c1)cc1ccc3cccc4ccc2c1c34 [benzo(a)pyrene],P450 MCA-inducible upregulated at least once during the time course,P450 MCA-inducible,greater than 3 fold
same,P450 LA-omega upregulated at least once during the time course,P450 LA-omega,greater than 3 fold
same,P450 ISF/B-NF upregulated at least once during the time course,P450 ISF/B-NF,greater than 3 fold
same,SEQ ID NOs: 1-47 up-regulated or downregulated at least once during the time course,SEQ ID NOs: 1-47,at least 3 fold

# Source: patent US6403778B1, “Toxicological response markers” (Incyte Genomics, Inc., priority 1998, dated 2002)
